This note sets out measurements from ChEMBL document CHEMBL4321836, “Discovery of BAY-298 and BAY-899: Tetrahydro-1,6-naphthyridine-Based, Potent, and Selective Antagonists of the Luteinizing Hormone Receptor Which Reduce Sex Hormone Levels in Vivo” (J Med Chem, 2019).

Bounds are passed on as bounds.

Series [1] deals with T1, Adenosine receptor A3 (Homo sapiens) (UniProt P0DMS8).
T1 sequence (whole entry): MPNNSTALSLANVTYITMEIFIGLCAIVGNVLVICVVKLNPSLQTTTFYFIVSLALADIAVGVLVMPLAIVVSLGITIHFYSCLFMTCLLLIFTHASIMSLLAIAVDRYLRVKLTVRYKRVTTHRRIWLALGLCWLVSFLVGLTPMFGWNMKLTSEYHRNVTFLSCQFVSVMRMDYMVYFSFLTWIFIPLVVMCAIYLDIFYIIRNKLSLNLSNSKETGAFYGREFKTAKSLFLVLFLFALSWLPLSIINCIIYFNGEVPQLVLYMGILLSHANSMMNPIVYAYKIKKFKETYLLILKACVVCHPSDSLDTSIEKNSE
The series is described as follows: Antagonist activity at human A3 receptor expressed in CHO-K1 cells at 10 uM after 20 mins by HTRF assay relative to control. Type of series: cell-based. Details: scale not given: the % may be the effect or the level left.

The target in series [2] is Kappa-type opioid receptor (Homo sapiens) (UniProt P41145). Nature of the series: Antagonist activity at human kappa opioid receptor at 10 uM by Spectrophotometric method relative to control. More on the design: scale not given: the % may be the effect or the level left.
Series [3] concerns the target T2, 5-hydroxytryptamine receptor 1A (Homo sapiens) (UniProt P08908).
T2 sequence (whole entry): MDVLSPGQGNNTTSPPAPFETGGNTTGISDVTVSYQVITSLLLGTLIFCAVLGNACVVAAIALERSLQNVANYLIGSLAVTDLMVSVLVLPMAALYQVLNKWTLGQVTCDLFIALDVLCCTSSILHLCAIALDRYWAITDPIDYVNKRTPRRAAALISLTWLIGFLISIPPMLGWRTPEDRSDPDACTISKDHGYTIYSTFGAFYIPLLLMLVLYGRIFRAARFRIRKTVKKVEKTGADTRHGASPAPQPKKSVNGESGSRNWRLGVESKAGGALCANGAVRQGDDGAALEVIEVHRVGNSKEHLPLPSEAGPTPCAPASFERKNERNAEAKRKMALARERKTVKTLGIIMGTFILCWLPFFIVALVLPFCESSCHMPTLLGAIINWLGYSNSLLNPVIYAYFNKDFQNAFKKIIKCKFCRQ
The series is described as follows: Agonist activity at human 5-HT1A receptor expressed in mouse BA/F3 cells at 10 uM by fluorimetric method relative to control. In kind it is cell-based.

Series [4] addresses T2, 5-hydroxytryptamine receptor 1A (Homo sapiens). The series is described as follows: Antagonist activity at human 5-HT1A receptor expressed in mouse BA/F3 cells at 10 uM by fluorimetric method relative to control. Type of series: cell-based. More on the design: scale not given: the % may be the effect or the level left.
For series [5], the target named is T3, Lutropin-choriogonadotropic hormone receptor (Homo sapiens, UniProt P22888). Nature of the series: Agonist activity at human luteinizing hormone receptor incubated for 60 mins by cell based TR-FRET assay.
For series [6], the system named is Rattus norvegicus. The series is described as follows: Downregulation of human luteinizing hormone-induced COX-2 mRNA expression in cetrorelix-treated iv dosed female rat after 2 hrs by Taqman probe based RT-PCR analysis. In kind it is functional, organism-based.
Series [7] has as its system Rattus norvegicus. The series is described as follows: Reversal of human luteinizing hormone-induced suppression of aromatase mRNA expression in cetrorelix-treated iv dosed female rat after 2 hrs by Taqman probe based RT-PCR analysis. In kind it is functional, organism-based.
For series [8], the system named is Rattus norvegicus. The series is described as follows: Downregulation of human luteinizing hormone-induced RUNX1 mRNA expression in cetrorelix-treated iv dosed female rat after 2 hrs by Taqman probe based RT-PCR analysis. Type of series: functional, organism-based.
The subject of series [9] is Rattus norvegicus. Nature of the series: Downregulation of human luteinizing hormone-induced progesterone expression in plasma of cetrorelix-treated female rat at 4.5 mg/kg, iv after 2 hrs by radioimmunoassay method (reference value: 243 nM). Type of series: functional.
The target of series [10] is T3, Lutropin-choriogonadotropic hormone receptor. Nature of the series: Negative allosteric modulation of human luteinizing hormone receptor assessed as Emax for glycoprotein human luteinizing hormone-induced agonist activity at 0.84 nM to 17 uM preincubated for 20 mins followed by 1 times EC80 of agonist addition and measured after 60 mins by cell based TR-FRET assay relative to control.

Series [11] shares this target. Nature of the series: Negative allosteric modulation of human luteinizing hormone receptor assessed as Emax for glycoprotein human luteinizing hormone-induced agonist activity at 0.84 nM to 17 uM preincubated for 20 mins followed by 4 times EC80 of agonist addition and measured after 60 mins by cell based TR-FRET assay relative to control.
For series [12] the target is unchanged. The series is described as follows: Negative allosteric modulation of human luteinizing hormone receptor assessed as Emax for glycoprotein human luteinizing hormone-induced agonist activity at 0.84 nM to 17 uM preincubated for 20 mins followed by 10 times EC80 of agonist addition and measured after 60 mins by cell based TR-FRET assay relative to control.

The target is the same in series [13]. Nature of the series: Negative allosteric modulation of human luteinizing hormone receptor assessed as reduction in glycoprotein human luteinizing hormone-induced agonist activity preincubated for 20 mins followed by 1 times EC80 of agonist addition and measured after 60 mins by cell based TR-FRET assay relative to control.
Series [14] has the same target. Nature of the series: Negative allosteric modulation of human luteinizing hormone receptor assessed as reduction in glycoprotein human luteinizing hormone-induced agonist activity preincubated for 20 mins followed by 4 times EC80 of agonist addition and measured after 60 mins by cell based TR-FRET assay relative to control.
The target is the same in series [15]. Nature of the series: Negative allosteric modulation of human luteinizing hormone receptor assessed as reduction in glycoprotein human luteinizing hormone-induced agonist activity preincubated for 20 mins followed by 16 times EC80 of agonist addition and measured after 60 mins by cell based TR-FRET assay relative to control.
For series [16] the target is unchanged. The series is described as follows: Negative allosteric modulation of human luteinizing hormone receptor assessed as Emax for Org 43553-induced agonist activity at 0.84 nM to 17 uM preincubated for 20 mins followed by 16 times EC80 of agonist addition and measured after 60 mins by cell based TR-FRET assay relative to control. The conditions noted are these: at 0.00084 to 17 µM.

The subject of series [17] is Rattus norvegicus. Nature of the series: Downregulation of human luteinizing hormone-induced progesterone expression in plasma of cetrorelix-treated female rat at 27 mg/kg, iv after 2 hrs by radioimmunoassay method (reference value: 243 nM). Type of series: functional.
For series [18], the system named is Rattus norvegicus. The series is described as follows: Downregulation of human luteinizing hormone-induced progesterone expression in plasma of cetrorelix-treated iv dosed female rat after 2 hrs by radioimmunoassay method. Type of series: functional, organism-based.
Series [19] concerns Rattus norvegicus. Nature of the series: Downregulation of estradiol level in proestrus staged-female rat serum at 4.5 mg/kg, po administered once daily for 8 days and measured by radioimmunoassay method (reference value: 125 pmol/L). Type of series: functional.
The subject of series [20] is Rattus norvegicus. The series is described as follows: Downregulation of estradiol level in proestrus staged-female rat serum at 9 mg/kg, po administered once daily for 8 days and measured by radioimmunoassay method (reference value: 125 pmol/L). Type of series: functional.
Series [21] concerns Rattus norvegicus. Nature of the series: Downregulation of estradiol level in proestrus staged-female rat serum at 18 mg/kg, po administered once daily for 8 days and measured by radioimmunoassay method (reference value: 125 pmol/L). Type of series: functional.
The subject of series [22] is Rattus norvegicus. The series is described as follows: Downregulation of estradiol level in proestrus staged-female rat serum at 36 mg/kg, po administered once daily for 8 days and measured by radioimmunoassay method (reference value: 125 pmol/L). In kind it is functional.
The test system of series [23] is Rattus norvegicus. Nature of the series: Downregulation of estradiol level in proestrus staged-female rat serum at 72 mg/kg, po administered once daily for 8 days and measured by radioimmunoassay method (reference value: 125 pmol/L). In kind it is functional.
Series [24] can be described thus: Free plasma concentration in female rat at 4.5 to 72 mg/kg, po administered once daily for 8 days. Type of series: ADME, organism-based. The note with it: in vivo, 192 h.
In series [25] the test system is Rattus norvegicus. The series is described as follows: Downregulation of estradiol level in po dosed proestrus staged-female rat serum administered once daily for 8 days and measured by radioimmunoassay method. Type of series: functional, organism-based.

T3 sequence (P22888 whole entry): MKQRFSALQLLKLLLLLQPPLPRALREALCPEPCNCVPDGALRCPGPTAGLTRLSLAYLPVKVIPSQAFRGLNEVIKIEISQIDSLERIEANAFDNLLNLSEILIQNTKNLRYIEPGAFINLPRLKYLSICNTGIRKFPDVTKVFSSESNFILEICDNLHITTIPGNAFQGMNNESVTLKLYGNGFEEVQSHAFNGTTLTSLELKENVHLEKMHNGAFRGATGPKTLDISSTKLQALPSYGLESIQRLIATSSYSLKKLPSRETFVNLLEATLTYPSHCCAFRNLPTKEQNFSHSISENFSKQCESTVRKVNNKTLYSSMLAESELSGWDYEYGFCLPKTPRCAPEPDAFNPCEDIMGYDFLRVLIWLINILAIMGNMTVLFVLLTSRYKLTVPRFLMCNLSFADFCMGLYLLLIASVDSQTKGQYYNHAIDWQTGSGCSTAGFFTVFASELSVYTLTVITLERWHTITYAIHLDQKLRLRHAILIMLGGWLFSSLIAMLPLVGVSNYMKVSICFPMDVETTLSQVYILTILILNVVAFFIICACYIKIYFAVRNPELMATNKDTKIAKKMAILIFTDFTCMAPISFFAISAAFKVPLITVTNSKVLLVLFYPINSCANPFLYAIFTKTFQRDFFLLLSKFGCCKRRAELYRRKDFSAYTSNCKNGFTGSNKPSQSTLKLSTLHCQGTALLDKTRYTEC
Kappa-type opioid receptor (Homo sapiens), sequence (P41145 whole entry): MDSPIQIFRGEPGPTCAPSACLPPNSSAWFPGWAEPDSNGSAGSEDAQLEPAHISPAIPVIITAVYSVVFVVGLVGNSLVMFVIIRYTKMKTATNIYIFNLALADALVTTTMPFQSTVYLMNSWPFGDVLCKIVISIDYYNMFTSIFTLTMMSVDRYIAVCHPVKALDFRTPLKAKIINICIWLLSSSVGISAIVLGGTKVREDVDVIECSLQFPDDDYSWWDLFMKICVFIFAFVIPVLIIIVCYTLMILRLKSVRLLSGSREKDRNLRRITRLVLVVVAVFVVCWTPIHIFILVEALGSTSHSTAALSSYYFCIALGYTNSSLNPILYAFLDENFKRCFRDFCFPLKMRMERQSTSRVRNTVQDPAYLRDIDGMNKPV

As to `O=C(Nc1cnc(Oc2ccc(F)cc2)nc1)N1CCc2ncccc2[C@@H]1c1ccc(F)cc1` [BAY-899], the Activity in series [1], in series [2], in series [3] and in [4] was less than 70% each time.

Take `O=C(Nc1ccc(Oc2ccc(F)cc2)cc1)N1CCc2ncccc2[C@@H]1c1ccc(Cl)cc1`: in series [5], the EC50 was greater than 16 µM. The Activity entry in [6] is “Dose-dependent effect”; in series [7], “Dose-dependent effect”; in [8], “Dose-dependent effect”; in series [1], less than 70%; in series [2] it was less than 70%; in series [3], less than 70%. Further, the Activity is less than 70% in series [4]; 76 nM in [9]; 50 nM in series [17]; “Dose-dependent effect” in [18]; 118 pmol/L in series [19]; 80 pmol/L in series [20]. The Activity in [21] is 70 pmol/L; in series [22], 48 pmol/L; in series [23], less than 39 pmol/L; in series [25], “Dose-dependent effect”. For the same molecule, the Emax in series [10] stood at 99%; in series [11] it was 99%; in series [12] it was 106%; in [16], 102%. Further, the IC50 amounted to 0.097 µM in series [13], 0.2 µM in series [14] and 2.2 µM in series [15]. The “Cp(f)” value in series [24] came to 0.024 µM.
